Reference: paper PMC9229798, “Antioxidant Activity and Cytotoxicity of Aromatic Oligosulfides” (Molecules, 2022)
Several values for one entry are separate records, joined by “and”; a condition that tells them apart may be missing. Equal entries are not always repeated. Where two headings read alike, the source gives them in different places.

Tests used:
[1] = CUPRAC assay (cupric reducing antioxidant capacity); details: Trolox equivalents; compound 0.5 mM, 30 min
Procedure: Antioxidant activity can be evaluated by the CUPRAC test (cupric reducing antioxidant capacity) based on the ability of the compound to reduce Cu^2+ in complex with 2,9-dimethyl-1,10-phenanthroline (neocuproin). The antioxidant capacity of compounds 1–6 in the CUPRAC test was measured in equivalents of the water-soluble analogue of vitamin E—Trolox (TEACCUPRAC) (Table 2). […] The TEACCUPRAC values of disulfides 4 and 6 were quite close and indicated the manifestation of antioxidant activity mainly due to the presence of HO-groups. The slightly lower activity of compound 4 was explained by the absence of tert-butyl groups in its structure.
Neocuproine (2,9-dimethyl-1,10-phenanthroline) and Trolox were used with no further purification. The method proposed by Apak et al. was used with slight modification. For these measurements, 0.05 mL of CuCl2 solution (0.01 M), 0.05 mL of MeOH neocuproine solution (7.5 mM) and 0.05 mL of ammonium acetate buffer solution (1 M) were added to a test tube, followed by mixing with the 0.05 mL tested compounds (0.5 mM). The mixtures were kept at room temperature for 30 min. Absorbance was measured at 450 nm against a reagent blank. The results were presented in Trolox equivalents (Trolox equivalent antioxidant capacity, TEAC) obtained using absorbance data, and the linear calibration curve was plotted as absorbance vs. Trolox concentration.

[2] = FRAP assay (ferric reducing antioxidant power); details: Trolox equivalents
Procedure: The assessment of antioxidant activity was also carried out by the FRAP (Ferric Reduction Aantioxidant Power) method based on electron transfer similar to the CUPRAC method, while in the DPPH test, the reaction proceeded according to the HAT mechanism. Antioxidant activity of compounds 1–6 was also calculated in Trolox equivalents (TEACFRAP). […] The lowest activity was obtained for trisulfide 1 and disulfide 5, which are characterized by the absence of functional groups in the benzene ring. The TEACFRAP values for disulfide 2 with a methoxy group and compounds 4 and 6 with a phenolic fragment differed insignificantly and amounted to 0.58 and 0.69 Trolox equivalents.
The sample solution (0.1 mL) was mixed with 0.1 mL phosphate buffer (0.2 M, pH 6.6) and 0.1 mL potassium ferricyanide (1%). For each test compound different concentrations in EtOH were used (5, 10, 25, 50, 100, 200 and 250 μM). The resulting mixture was incubated at 50 °C for 20 min. After the incubation period, 0.1 mL trichloroacetic acid (10%), 0.5 mL deionized water, and 0.1 mL ferric chloride (0.1%) were added to the mixture. The sample absorbance was read at 700 nm with a 96-cell microplate spectrophotometer. The reduction of Fe (III) to Fe (II) could be expressed as % inhibition or equivalent of a standard compound (e.g., Trolox).

[3] = TBARS accumulation in oleic acid oxidation; details: 1 mmol/L additive, 65 °C, 3 h
Procedure: The total antioxidant activity of compounds 1–6 during the oxidation of oleic acid with atmospheric oxygen at 65 °C for 3 h was determined by standard methods according to the level of accumulation of the main metabolites. Hydroperoxides as primary products (LOOH) and secondary LPO carbonyl products formed colored complexes with thiobarbituric acid (TBARS).
The kinetics of LOOH and TBARS formation was similar in the control test and in the presence of the studied compounds. The exponential kinetic curves of LOOH accumulation in oleic acid corresponded to the equation CLOOH = a × e^kt with correlation coefficients close to 1. It indicated a pseudo-first order of reaction in the substrate, inherent in a radical process with degenerate chain branching (Figure 2). The kinetic curves of secondary carbonyl products were linear and corresponded to the equation CTBARS = kt + b, with correlation coefficients close to 1 (Figure 3).
The accumulation rate for the final oxidation products (TBARS) was determined according to a modified standard method. Samples (0.01 mL) of oleic acid were taken from the thermostat every 30 min. They were introduced into a test tube containing a mixture of Tris buffer (0.8 mL), distilled water (1.2 mL), and freshly prepared thiobarbituric acid solution (0.8%, 1 mL). The tube was placed for 10 min in a boiling water bath, and after cooling, the absorption of the samples was measured in comparison with that of the control at λ = 532 nm. A similar mixture, but without added oleic acid, was used as the control. The concentration of carbonyl compounds was calculated according to the formula:
[TBARS] = (E × 3)/0.156, where [TBARS] is the content of carbonyl compounds, nM; E is the extinction of a sample relative to the control; 3 is the sample volume, mL; and 0.156 is the extinction of malondialdehyde (1 nmol) dissolved in 1 mL at λ = 532 nm.

[4] = design: method as in doi:10.3906/kim-1904-40; details: PASS, cited from earlier work
[5] = system: MCF-7; design: method as in doi:10.3906/kim-1904-40; details: CLC-Pred, cited from earlier work; for Cytotoxicity MCF-7, Pi: probability of lack of activity; for Cytotoxicity MCF-7, Pa: probability of presence of activity
[6] = design: method as in doi:10.3906/kim-1904-40; details: Trolox equivalents; cited from earlier work
[7] = ferrozine–Fe2+ complex formation; cited from earlier work
[8] = system: SOD; design: method as in doi:10.3906/kim-1904-40; details: adrenaline oxidation with biopreparation; cited from earlier work
[9] = design: method as in doi:10.1016/j.arabjc.2021.103068; details: 1 mmol/L additive, 65 °C; cited from earlier work
[10] = design: method as in doi:10.1016/j.arabjc.2021.103068; details: oleic acid, 1 mmol/L additive, 65 °C; cited from earlier work
[11] = design: method as in doi:10.1016/j.arabjc.2021.103068; details: all stages of LPO; cited from earlier work
[12] = probability of lack of activity
[13] = probability of presence of activity

SMILES	TEAC CUPRAC [1]	TEAC FRAP [2]	TBARS, % Inhibition [3] [%]	Antidote, Pi [4, 12]	Free radical scavenger, Pi [4, 12]	Nitric oxide scavenger, Pi [4, 12]	Oxygen scavenger, Pi [4, 12]	Antidote, Pa [4, 13]	Free radical scavenger, Pa [4, 13]	Nitric oxide scavenger, Pa [4, 13]	Oxygen scavenger, Pa [4, 13]	Cytotoxicity MCF-7, Pi [5]	Cytotoxicity MCF-7, Pa [5]	TEAC CUPRAC [6]	FIC, % of Inhibition [7] [%]	SOD Activity of Liver Sturgeon, % Inhibition [8] [%]	LOOH, k0/k1 (relative rate constant of LOOH formation) [9]	TBARS, % Inhibition [10] [%]	anti-/prooxidant effect in liver LPO [11]	further results
c1ccc(SSSc2ccccc2)cc1 [Compound 1, diphenyl trisulfide]	non active	0.06 ± 0.01	21.0 ± 0.18																	
COc1ccccc1SSc1ccccc1OC [Compound 2, bis(2-methoxyphenyl) disulfide]	non active	0.58 and 0.58 ± 0.05	42.9 ± 0.76																	
COc1ccc(SSc2ccc(OC)c(OC)c2)cc1OC [Compound 3, bis(3,4-dimethoxyphenyl) disulfide]	0.06 ± 0.01																			
Oc1ccc(SSc2ccc(O)cc2)cc1 [Compound 4, 4,4′-dihydroxydiphenyl disulfide]	1.8 and 1.80 ± 0.06	0.69 and 0.69 ± 0.07	39.0 ± 0.49																	
c1ccc(SSc2ccccc2)cc1 [Compound 5, diphenyl disulfide]		0.06 ± 0.05		0.078	0.056	0.013	0.018	0.228	0.230	0.274	0.621	0.005	0.882	0.10 ± 0.01	73.7 ± 2.1	61 ± 4.8	0.79 ± 0.11	24.6 ± 0.29	prolonged prooxidant activity	
CC(C)(C)c1cc(SSc2cc(C(C)(C)C)c(O)c(C(C)(C)C)c2)cc(C(C)(C)C)c1O [Compound 6, bis(3,5-di-tert-butyl-4-hydroxyphenyl) disulfide]		0.69 and 0.69 ± 0.02		0.027	0.012	0.012	0.044	0.317	0.473	0.278	0.519	0.082	0.403	2.04 ± 0.05	28.9 ± 1.3	85 ± 3.0	0.49 ± 0.05	73.1 ± 1.30	pronounced antioxidant effect	Antioxidant, Pi [4, 12]: 0.005; Antioxidant, Pa [4, 13]: 0.549
